Measurements taken from PubChem BioAssay (NCI).
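Step 1: Grow cells in 96-well plates. Step 2: Expose to compound for 48 hours at 5 concentrations. Step 3: Interpolate endpoints linearly; if unreached, use highest concentration. GI50 is the concentration that inhibits growth by half. At the TGI there is no net growth.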

What was measured:
Assay in all cases: NCI tumour cell line growth inhibition, 48 h
[1] = tested on: HOP-92 NSCLC
[2] = tested on: NCI-H23 lung
[3] = tested on: EKVX NSCLC
[4] = tested on: HCC-2998 colon
[5] = tested on: ACHN renal
[6] = tested on: UACC-257 melanoma
[7] = tested on: K-562 leukemia
[8] = tested on: T-47D breast
[9] = tested on: RPMI-8226 leukemia
[10] = tested on: HCT-116 colon
[11] = tested on: OVCAR-4 ovarian
[12] = tested on: A549 NSCLC
[13] = tested on: SF-295 CNS
[14] = tested on: HCT-15 colon
[15] = tested on: CAKI-1 renal
[16] = tested on: HT29 colon
[17] = tested on: KM12 colon
[18] = tested on: U251 CNS
[19] = tested on: NCI-H460 lung
[20] = tested on: LOX IMVI melanoma
[21] = tested on: OVCAR-5 ovarian
[22] = tested on: UACC-62 melanoma
[23] = tested on: PC-3 prostate
[24] = tested on: NCI-H226 lung
[25] = tested on: SNB-19 CNS
[26] = tested on: UO-31 renal
[27] = tested on: SF-539 CNS
[28] = tested on: M14 melanoma
[29] = tested on: IGROV1 ovarian
[30] = tested on: 786-0 renal
[31] = tested on: SF-268 CNS
[32] = tested on: HL-60(TB) leukemia
[33] = tested on: MOLT-4 leukemia
[34] = tested on: NCI/ADR-RES ovarian
[35] = tested on: SK-MEL-28 melanoma
[36] = tested on: MDA-MB-435
[37] = tested on: OVCAR-8 ovarian
[38] = tested on: SN12C renal
[39] = tested on: RXF 393 renal
[40] = tested on: MCF7 breast
[41] = tested on: HS 578T breast
[42] = tested on: DU-145 prostate
[43] = tested on: MDA-MB-231 breast
[44] = tested on: SK-OV-3 ovarian
[45] = tested on: SNB-75 CNS
[46] = tested on: TK-10 renal
[47] = tested on: MALME-3M melanoma
[48] = tested on: CCRF-CEM leukemia
[49] = tested on: SR leukemia
[50] = tested on: HOP-62 NSCLC
[51] = tested on: SK-MEL-5 melanoma
[52] = tested on: SW-620 colon
[53] = tested on: A498 renal
[54] = tested on: BT-549 breast
[55] = tested on: SK-MEL-2 melanoma
[56] = tested on: COLO 205 colon
[57] = tested on: NCI-H522 lung

## O=C(NNc1nc2cc(F)ccc2n2c(CN3CCCC3)ccc12)c1cnccn1
[1]
  GI50: 2600 nM
  TGI: 28.9 µM
[2]
  GI50: 2450 nM
  TGI: 18.5 µM
[3]
  GI50: 1010 nM
  TGI: 16.2 µM
[4]
  GI50: 3.51 µM
  TGI: 27.8 µM
[5]
  GI50: 899 nM
  TGI: > 100 µM
[6]
  GI50: 2140 nM
  TGI: 6.87 µM
[7]
  GI50: 599 nM
  TGI: > 100 µM
[8]
  GI50: 2390 nM
  TGI: 48.2 µM
[9]
  GI50: 955 nM
  TGI: 49.2 µM
[10]
  GI50: 725 nM
  TGI: 12.4 µM
[11]
  GI50: 2050 nM
  TGI: 55.8 µM
[12]
  GI50: 1380 nM
  TGI: 12.2 µM
[13]
  GI50: 627 nM
  TGI: 15.8 µM
[14]
  GI50: 324 nM
  TGI: 21.7 µM
[15]
  GI50: 1610 nM
  TGI: 18.1 µM
[16]
  GI50: 599 nM
  TGI: 14.1 µM
[17]
  GI50: 1190 nM
  TGI: 16.5 µM
[18]
  GI50: 1190 nM
  TGI: 14.6 µM
[19]
  GI50: 568 nM
  TGI: 5.43 µM
[20]
  GI50: 893 nM
  TGI: 11 µM
[21]
  GI50: 1310 nM
  TGI: 16.1 µM
[22]
  GI50: 2620 nM
  TGI: 8.34 µM
[23]
  GI50: 2170 nM
  TGI: 19.8 µM
[24]
  GI50: 3.33 µM
  TGI: 23.1 µM
[25]
  GI50: 2390 nM
  TGI: 24.6 µM
[26]
  GI50: 375 nM
  TGI: 9.57 µM
[27]
  GI50: 1490 nM
  TGI: 10.4 µM
[28]
  GI50: 1610 nM
  TGI: 12.1 µM
[29]
  GI50: 747 nM
  TGI: 11.5 µM
[30]
  GI50: 2070 nM
  TGI: 11.3 µM
[31]
  GI50: 1380 nM
  TGI: 33.9 µM
[32]
  GI50: 1430 nM
  TGI: 4.84 µM
[33]
  GI50: 773 nM
  TGI: > 100 µM
[34]
  GI50: 569 nM
  TGI: 6.32 µM
[35]
  GI50: 3.4 µM
  TGI: 21.4 µM
[36]
  GI50: 3.95 µM
  TGI: > 100 µM
[37]
  GI50: 1000 nM
  TGI: 10.6 µM
[38]
  GI50: 2160 nM
  TGI: > 100 µM
[39]
  GI50: 1620 nM
  TGI: 7.56 µM
[40]
  GI50: 932 nM
  TGI: 8.1 µM
[41]
  GI50: 4.55 µM
  TGI: > 100 µM
[42]
  GI50: 1490 nM
  TGI: 13 µM
[43]
  GI50: 2300 nM
  TGI: 20.2 µM
[44]
  GI50: 1670 nM
  TGI: 12.8 µM
[45]
  GI50: 3.72 µM
  TGI: 30.9 µM
[46]
  GI50: 1600 nM
  TGI: 9.84 µM
[47]
  GI50: 2810 nM
  TGI: 54.2 µM
[48]
  GI50: 521 nM
  TGI: > 100 µM
[49]
  GI50: 416 nM
  TGI: > 100 µM
[50]
  GI50: 613 nM
  TGI: 6.3 µM
[51]
  GI50: 2810 nM
  TGI: 8.1 µM
[52]
  GI50: 1930 nM
  TGI: 16.7 µM
[53]
  GI50: 1310 nM
  TGI: 4.99 µM
[54]
  GI50: 3.26 µM
  TGI: 26 µM
[55]
  GI50: 2480 nM
  TGI: 10.8 µM
[56]
  GI50: 1620 nM
  TGI: 15.1 µM
[57]
  GI50: 2120 nM
  TGI: 5.55 µM
